Measurements reported in ChEMBL document CHEMBL1821652, “QSAR models for predicting enzymatic hydrolysis of new chemical entities in 'soft-drug' design” (Bioorg Med Chem, 2009).
Residues, ends and D or L forms follow the SMILES beside them.

experiment: Half life in human plasma; format: ADME, cell-free

`CSCOC(=O)[C@@]1(O)CC[C@H]2[C@@H]3CCC4=CC(=O)C=C[C@]4(C)[C@H]3[C@@H](O)C[C@@]21C` and `CSCOC(=O)[C@@]1(O)CC[C@H]2[C@@H]3CCC4=CC(=O)CC[C@]4(C)[C@H]3[C@@H](O)C[C@@]21C` are within 1.5-fold of each other in half-life: 2100 min for the first, 2280 min for the second.

`CCN(CC)CC(=O)OCCn1c([N+](=O)[O-])cnc1C.Cl` and `CCC1CCN(CC(=O)OCCn2c([N+](=O)[O-])cnc2C)CC1` are within 1.5-fold of each other in half-life: 33.6 min for the first, 46.5 min for the second.

First: N[C@@H](Cc1ccc(O)c(O)c1)C(=O)OCCCCO
Second: CC(C)OC(=O)[C@@H](N)Cc1ccc(O)c(O)c1
The half-life of the first is 2.3-fold lower: 105 min for the first, 238 min for the second.

Compared with `CCCCC(=O)OCN1C(=O)NC(c2ccccc2)(c2ccccc2)C1=O`, `CCOC(=O)CN(COC(=O)c1ccccc1)C(=O)c1ccccc1` is 6.3-fold higher in half-life: 1.9 min for the first, 12 min for the second.

First: Nc1nc2c(ncn2COCCOC(=O)c2cccc(CN3CCOCC3)c2)c(=O)[nH]1
Second: Nc1nc2c(ncn2COCCOC(=O)c2cccc(CN3CCCCC3)c2)c(=O)[nH]1
The half-life of the first is 1.8-fold lower: 4.6 min for the first, 8.5 min for the second.

Compared with `CCN(CC)C(=O)COC(=O)[C@H](C)c1ccc(-c2ccccc2)c(F)c1`, `C[C@H](C(=O)OCC(=O)N(C)C)c1ccc(-c2ccccc2)c(F)c1` is 7.3-fold higher in half-life: 1.5 min for the first, 11 min for the second.

Going from `CCCN(CCC)S(=O)(=O)c1ccc(C(=O)OCN(CC(=O)OCC)C(=O)c2ccccc2)cc1` to `CCOC(=O)CN(COC(=O)Cc1ccccc1Nc1c(Cl)cccc1Cl)C(=O)c1ccccc1`, the half-life rises from 46 min to 162 min (3.5-fold).

Going from `Cc1cn([C@H]2C=C[C@@H](COC(=O)CN(C)C)O2)c(=O)[nH]c1=O` to `Cc1cn([C@H]2C=C[C@@H](COC(=O)CN3CCNCC3)O2)c(=O)[nH]c1=O`, the half-life falls from 30 min to 20 min (1.5-fold).

Going from `O=C(OCc1ccccc1)[C@H]1O[C@@H](Oc2cc3oc(-c4ccc(O)cc4)cc(=O)c3c(O)c2O)[C@H](O)[C@@H](O)[C@@H]1O` to `CCOC(=O)[C@H]1O[C@@H](Oc2cc3oc(-c4ccc(O)cc4)cc(=O)c3c(O)c2O)[C@H](O)[C@@H](O)[C@@H]1O`, the half-life rises from 88 min to 273 min (3.1-fold).

Going from `Cc1ncc([N+](=O)[O-])n1CCOC(=O)CN1CCC(c2ccccc2)CC1` to `Cc1ncc([N+](=O)[O-])n1CCOC(=O)CCCC(=O)OCCn1c([N+](=O)[O-])cnc1C`, the half-life falls from 138 min to 36.6 min (3.8-fold).

First: COC(=O)[C@@H](C)c1ccc2cc(OC)ccc2c1
Second: CCOC(=O)CN(C)C(=O)OCOC(=O)[C@@H](C)c1ccc2cc(OC)ccc2c1
The half-life of the first is 120-fold higher: 316 min for the first, 2.72 min for the second.

`CCOC(=O)CN(C)C(=O)OCOC(=O)c1ccccc1` and `CCOC(=O)CNC(=O)OCOC(=O)c1cccnc1` are within 1.5-fold of each other in half-life: 0.41 min for the first, 0.43 min for the second.

Going from `CCCC(CCC)C(=O)OCN(C)C(=O)c1ccccc1` to `CN(CC(=O)O)C(=O)[C@@H](N)CCC(=O)OCc1ccccc1`, the half-life falls from 384 min to 73.2 min (5.2-fold).

Compared with `CCOC(=O)CSCC(=O)[C@@]12OC(C)(C)O[C@@H]1C[C@H]1[C@@H]3C[C@H](F)C4=CC(=O)C=C[C@]4(C)[C@@]3(F)[C@@H](O)C[C@@]12C`, `CCC[C@@H]1O[C@@H]2C[C@H]3[C@@H]4C[C@H](F)C5=CC(=O)CC[C@]5(C)[C@@]4(F)[C@@H](O)C[C@]3(C)[C@]2(S[C@@H]2CCOC2=O)O1` is 4.8-fold lower in half-life: 24 min for the first, 5 min for the second.

`N[C@@H](CC(=O)O)C(=O)O[C@H]1C[C@H](n2cc(F)c(=O)[nH]c2=O)O[C@@H]1CO` and `N[C@@H](CC(=O)O)C(=O)OC[C@H]1O[C@@H](n2cc(F)c(=O)[nH]c2=O)C[C@@H]1O` are within 1.5-fold of each other in half-life: 53.9 min for the first, 38.6 min for the second.

Going from `C[C@@H](C(=O)OCC(=O)N(C)C)c1ccc(-c2ccccc2)c(F)c1` to `C[C@H](C(=O)OCCn1ccnc1)c1ccc(-c2ccccc2)c(F)c1`, the half-life rises from 1.1 min to 445 min (400-fold).

Going from `CC(C)C[C@H]1NC(=O)[C@H](Cc2ccccc2)NC(=O)CNC(=O)[C@@H](C)NC(=O)[C@H](Cc2ccc(O)cc2)NC(=O)OCOC1=O` to `CC(C)C[C@H]1NC(=O)[C@H](Cc2ccccc2)NC(=O)CNC(=O)[C@@H](C)NC(=O)[C@H](Cc2ccc(O)cc2)NC(=O)/C=C\c2ccccc2OCOC1=O`, the half-life rises from 124 min to 264 min (2.1-fold).

Compared with `CC(C)C[C@H]1NC(=O)[C@H](Cc2ccccc2)NC(=O)CNC(=O)[C@@H](C)NC(=O)[C@H](Cc2ccc(O)cc2)NC(=O)/C=C\c2ccccc2OC1=O`, `CC(C)C[C@H](NC(=O)[C@H](Cc1ccccc1)NC(=O)CNC(=O)CN1C(=O)[C@H](Cc2ccc(O)cc2)NC12CCC(C)CC2)C(=O)O` (stereo partly drawn) is 16-fold higher in half-life: 72 min for the first, 1130 min for the second.

`O=C(OCN(C(=O)c1ccccc1)c1ccccc1)c1ccccc1` and `Cc1cc(C)nc(N(COC(=O)c2ccccc2)S(=O)(=O)c2ccc(N)cc2)n1` are within 1.5-fold of each other in half-life: 40 min for the first, 41.4 min for the second.

`CN(C)Cc1cccc(C(=O)OCCOCn2cnc3c(=O)[nH]c(N)nc32)c1` and `CCN(CC)Cc1cccc(C(=O)OCCOCn2cnc3c(=O)[nH]c(N)nc32)c1` are within 1.5-fold of each other in half-life: 7 min for the first, 7.5 min for the second.

First: CCOC(=O)CNC(=O)OCOC(=O)Cc1ccccc1Nc1c(Cl)cccc1Cl
Second: CCCCC(=O)OCOC(=O)Cc1c(C)n(C(=O)c2ccc(Cl)cc2)c2ccc(OC)cc12
The half-life of the first is 30-fold lower: 4.17 min for the first, 124 min for the second.

`CCCSc1ccc2nc(NC(=O)OC)n(C(=O)OCC)c2c1` and `CCCSc1ccc2c(c1)nc(NC(=O)OC)n2C(=O)OCC` are within 1.5-fold of each other in half-life: 7.19 min for the first, 8.32 min for the second.

Compared with `CCN(CC)C(=O)COC(=O)[C@H]1O[C@@H](Oc2cc3oc(-c4ccc(O)cc4)cc(=O)c3c(O)c2O)[C@H](O)[C@@H](O)[C@@H]1O`, `CCCC(=O)Oc1c(-c2ccc(O)c(O)c2)oc2cc(O)cc(O)c2c1=O` is 6.3-fold higher in half-life: 10 min for the first, 63 min for the second.

Compared with `CC(C)C[C@H](NC(=O)[C@H](Cc1ccccc1)NC(=O)CNC(=O)CN1C(=O)[C@H](Cc2ccc(O)cc2)NC12CCCCC2)C(=O)O`, `CC(C)C[C@H](NC(=O)[C@H](Cc1ccccc1)NC(=O)CNC(=O)CN1C(=O)[C@H](Cc2ccc(O)cc2)NC12CCCC2)C(=O)O` is 2.2-fold lower in half-life: 730 min for the first, 334 min for the second.

Compared with `CCCN(CCC)Cc1cccc(C(=O)OCCOCn2cnc3c(=O)[nH]c(N)nc32)c1`, `CCN(CC)Cc1ccc(C(=O)OCCOCn2cnc3c(=O)[nH]c(N)nc32)cc1` is 21-fold higher in half-life: 0.8 min for the first, 17 min for the second.

First: CC(=O)OCOC(=O)N(C)/N=N/c1ccc(C#N)cc1
Second: CCOC(=O)c1ccc(/N=N/N(C)C(=O)OCOC(C)=O)cc1
The half-life of the first is 1.7-fold lower: 7 min for the first, 12 min for the second.

Compared with `CC(C)C(=O)Oc1ccc2c3c1O[C@H]1C(=O)CC[C@@]4(O)[C@@H](C2)N(CC2CC2)CC[C@]314`, `CCC(CC)C(=O)Oc1ccc2c3c1O[C@H]1C(=O)CC[C@@]4(O)[C@@H](C2)N(CC2CC2)CC[C@]314` is 110-fold higher in half-life: 24.6 min for the first, 2680 min for the second.

First: COC(=O)[C@@H]1CCCN1C(=O)OCOC(=O)c1ccccc1
Second: CCOC(=O)c1ccc(/N=N/N(C)C(=O)OCOC(=O)c2ccccc2O)cc1
The half-life of the first is 9.8-fold lower: 3.48 min for the first, 34 min for the second.

Compared with `CCOC(=O)CN(C)C(=O)OCN(c1ccc([N+](=O)[O-])cc1Oc1ccccc1)S(C)(=O)=O`, `CCOC(=O)CN(COC(=O)[C@@H]1N2C(=O)[C@@H](NC(=O)Cc3ccccc3)[C@H]2SC1(C)C)C(=O)c1ccccc1` is 580-fold lower in half-life: 2950 min for the first, 5.1 min for the second.

Compared with `CCCCC(=O)OCn1cnc2c1c(=O)n(C)c(=O)n2C`, `CCCCC/C=C\C/C=C\C/C=C\CCCCC(=O)OCn1cnc2c1c(=O)n(C)c(=O)n2C` is 140-fold higher in half-life: 0.19 min for the first, 27.3 min for the second.

Compared with `Cc1nccn1CCOC(=O)[C@H](C)c1ccc(CC(C)C)cc1`, `CC(C)Cc1ccc([C@H](C)C(=O)OCCn2ccnc2)cc1` is 180-fold higher in half-life: 5.2 min for the first, 960 min for the second.

Going from `NCCCC[C@H](N)C(=O)O[C@H]1C[C@H](n2cc(F)c(=O)[nH]c2=O)O[C@@H]1CO` to `O=C(OC[C@H]1O[C@@H](n2cc(F)c(=O)[nH]c2=O)C[C@@H]1OC(=O)[C@@H]1CCCN1)[C@@H]1CCCN1`, the half-life falls from 51 min to 6 min (8.5-fold).

Compared with `CCCSc1ccc2c(c1)nc(NC(=O)OC)n2COC(=O)c1ccc(CN)cc1.Cl.Cl`, `CCOC(=O)c1ccc(/N=N/N(C)C(=O)OCOC(=O)c2ccccc2OC(C)=O)cc1` is 56-fold lower in half-life: 55.8 min for the first, 1 min for the second.

Compared with `Cc1cn([C@H]2C=C[C@@H](COC(=O)CN3CCN(c4cc5c(cc4F)c(=O)c(C(=O)O)cn5C4CC4)CC3)O2)c(=O)[nH]c1=O`, `Cc1cn(CCOC(=O)CC[C@H](N)C(=O)N(C)CC(=O)O)c(=O)[nH]c1=O` is 3.9-fold lower in half-life: 240 min for the first, 61.3 min for the second.

`C[C@H](NC(=O)[C@H](N)CCC(=O)OCCc1ccccc1)C(=O)O` and `NCC(=O)N[C@@H](Cc1ccccc1)C(=O)O` (H-Gly-Phe-OH) are within 1.5-fold of each other in half-life: 97 min for the first, 71.5 min for the second.

Compared with `CC(C)Cc1ccc([C@@H](C)C(=O)OCCn2ccnc2)cc1`, `CCOC(=O)[C@@H](C)c1ccc(CC(C)C)cc1` is 840-fold higher in half-life: 19 min for the first, 15900 min for the second.

Going from `CC(=O)Oc1ccc(CCNC(=O)CCCC[C@@H]2CCSS2)cc1OC(C)=O` to `COC(=O)[C@H](Cc1ccc(O)c(O)c1)NC(=O)CCCC[C@@H]1CCSS1`, the half-life rises from 10.3 min to 97.8 min (9.5-fold).

Going from `CC(=O)N(c1onc(C)c1C)S(=O)(=O)c1ccc(N)cc1` [SULFISOXAZOLE ACETYL] to `Cc1cc(C)nc(N(COC(=O)C(C)(C)C)S(=O)(=O)c2ccc(N)cc2)n1`, the half-life rises from 0.3 min to 244 min (810-fold).

First: CCCCCCCCCCCCOC(=O)[C@H](Cc1ccccc1)NC(=O)CN.Cl
Second: CCCCCCCCOC(=O)[C@H](Cc1ccccc1)NC(=O)CN.Cl
The half-life of the first is 2.6-fold higher: 112 min for the first, 42.5 min for the second.

Compared with `C[C@@H](C(=O)OCCn1ccnc1)c1ccc(-c2ccccc2)c(F)c1`, `CCOC(=O)[C@H](C)c1ccc(CC(C)C)cc1` is 310-fold higher in half-life: 18 min for the first, 5580 min for the second.

Compared with `CCOC(=O)CN(COC(=O)[C@@H]1N2C(=O)[C@@H](NC(=O)c3c(-c4c(Cl)cccc4Cl)noc3C)[C@H]2SC1(C)C)C(=O)c1ccccc1`, `CC(C)C[C@@H](NC(=O)[C@H](Cc1ccccc1)NC(=O)CNC(=O)[C@@H](C)NC(=O)[C@@H](N)Cc1ccc(O)cc1)C(=O)O` [DADLE] is higher in half-life: 10.1 min for the first, > 1440 min for the second.

Compared with `O=C(CCCCCCCCC(=O)Oc1ccc2c3c1O[C@H]1[C@@H](O)CC[C@@]4(O)[C@@H](C2)N(CC2CCC2)CC[C@]314)Oc1ccc2c3c1O[C@H]1[C@@H](O)CC[C@@]4(O)[C@@H](C2)N(CC2CCC2)CC[C@]314` [DINALBUPHINE SEBACATE], `Cc1ncc([N+](=O)[O-])n1CCOC(=O)CCCCCCCCC(=O)OCCn1c([N+](=O)[O-])cnc1C` is 1.9-fold higher in half-life: 5.4 min for the first, 10.2 min for the second.

Compared with `O=C(OC[C@H]1O[C@@H](n2cnc3c(NC4CCCC4)ncnc32)[C@H](O)[C@@H]1O)C1CCCCC1`, `CCC(=O)O[C@]1(C(=O)OCCl)CC[C@H]2[C@@H]3CCC4=CC(=O)CC[C@]4(C)[C@H]3[C@@H](O)C[C@@]21C` is 7.1-fold higher in half-life: 45 min for the first, 318 min for the second.

First: CC(C)Cc1ccc([C@H](C)C(=O)OCC(=O)N(C)C)cc1
Second: CCN(CC)CC(=O)N(COC(=O)C(C)(C)C)c1c(C)cccc1C
The half-life of the first is 40-fold lower: 7 min for the first, 280 min for the second.
